Measurements reported in patent publication US4605514A, “Des-4-leucine-calcitonin” (Armour Pharmaceutical Company, priority 1984, dated 1986).

System: Rats
Assay: Biological assay of calcitonin analogs in vivo: reduction of serum calcium concentration vs synthetic salmon calcitonin standard, 2×2 parallel line assay
Conditions: standard used in the assay; independently determined
Method: Biological Assay Of Calcitonin Analogs In Vivo
The biological potency of des-4-leucine-salmon calcitonin was determined by comparing the reduction of serum calcium concentration which followed administration by graded doses of des-Leu^4 -SCT and synthetic salmon calcitonin standard. Rats were divided into four groups of seven animals, and each group was assigned at random to a dose of standard or test solution. Low and high doses were chosen from the linear portion of the dose-response curve. For the salmon calcitonin standard, the values were 0.7 and 2.1 ng. peptide/100 g. body weight (BW). This dose approximates 3 and […]/100 g. BW. Peptides were given by subcutaneous injection (0.2 ml/100 g. BW) and blood was withdrawn 1 hour later for serum calcium determination. Sera are processed and analyzed within two hours of collection. […]. Results were analyzed by a 2×2 parallel line assay [Gaddum, J. H., J. Pharm. Pharmacol., 6, 345 (1953)]. The standard salmon calcitonin used was independently determined to contain greater than 4,000 IU/mg. des-Leu^4 -SCT assayed at 5400 IU/mg.

CC(C)C[C@H](NC(=O)[C@H](CCCCN)NC(=O)CNC(=O)[C@H](CC(C)C)NC(=O)[C@@H](NC(=O)[C@@H]1CSSC[C@H](N)C(=O)N[C@@H](CO)C(=O)N[C@@H](CC(N)=O)C(=O)N[C@@H](CC(C)C)C(=O)N[C@@H](CO)C(=O)N[C@@H]([C@@H](C)O)C(=O)N1)C(C)C)C(=O)N[C@@H](CO)C(=O)N[C@@H](CCC(N)=O)C(=O)N[C@@H](CCC(=O)O)C(=O)N[C@@H](CC(C)C)C(=O)N[C@@H](Cc1c[nH]cn1)C(=O)N[C@@H](CCCCN)C(=O)N[C@@H](CC(C)C)C(=O)N[C@@H](CCC(N)=O)C(=O)N[C@H](C(=O)N[C@@H](Cc1ccc(O)cc1)C(=O)N1CCC[C@H]1C(=O)N[C@@H](CCCNC(=N)N)C(=O)N[C@H](C(=O)N[C@@H](CC(N)=O)C(=O)N[C@H](C(=O)NCC(=O)N[C@@H](CO)C(=O)NCC(=O)N[C@H](C(=O)N1CCC[C@H]1C(N)=O)[C@@H](C)O)[C@@H](C)O)[C@@H](C)O)[C@@H](C)O [standard salmon calcitonin, Salmon calcitonin]
potency content of the standard salmon calcitonin: greater than 4,000 IU/mg
